pIC50: −log10 of the molar value. Each block holds one compound with its values, some of them ahead of it.
Experiments:
[1] = molecular target: Vascular endothelial growth factor receptor 1 (Homo sapiens, UniProt P17948); test: Inhibition of VEGFR1 (unknown origin) by FRET based Z-LYTE kinase assay
[2] = molecular target: T1, Vascular endothelial growth factor receptor 2 (Homo sapiens, UniProt P35968); test: Inhibition of VEGFR-2 (unknown origin) using poly-Glu-Ala-Tyr-biotin as substrate pre-incubated for 10 mins followed by substrate addition and measured after 30 mins by HTRF method
[3] = molecular target: Receptor-type tyrosine-protein kinase FLT3 (Homo sapiens) (UniProt P36888); test: Inhibition of FLT-3 (unknown origin) at 10 uM relative to control
[4] = molecular target: T1, Vascular endothelial growth factor receptor 2; test: Inhibition of VEGF-induced human VEGFR2 autophosphorylation expressed in HUVEC cells measured after 2 hrs by chemiluminescence assay; format: cell-based
[5] = test system: HepG2; test: Antitumor activity against human HepG2 cells xenografted in athymic nu/nu mouse assessed as tumor growth inhibition at 100 mg/kg, ip administered once daily relative to control; format: functional; set-up: scale not given: the % may be the effect or the level left
[6] = test system: HepG2; test: Antitumor activity against human HepG2 cells assessed as reduction in cell growth incubated for 48 hrs by MTT assay; format: functional, cell-based; conditions: HepG2, 48 h
[7] = test system: PC-3; test: Antitumor activity against human PC-3 cells assessed as reduction in cell growth incubated for 48 hrs by MTT assay; format: functional, cell-based; conditions: PC-3, 48 h
[8] = test system: MCF7; test: Antitumor activity against human MCF7 cells assessed as reduction in cell growth incubated for 48 hrs by MTT assay; format: functional, cell-based; conditions: MCF7, 48 h

T1 sequence (P35968 whole entry): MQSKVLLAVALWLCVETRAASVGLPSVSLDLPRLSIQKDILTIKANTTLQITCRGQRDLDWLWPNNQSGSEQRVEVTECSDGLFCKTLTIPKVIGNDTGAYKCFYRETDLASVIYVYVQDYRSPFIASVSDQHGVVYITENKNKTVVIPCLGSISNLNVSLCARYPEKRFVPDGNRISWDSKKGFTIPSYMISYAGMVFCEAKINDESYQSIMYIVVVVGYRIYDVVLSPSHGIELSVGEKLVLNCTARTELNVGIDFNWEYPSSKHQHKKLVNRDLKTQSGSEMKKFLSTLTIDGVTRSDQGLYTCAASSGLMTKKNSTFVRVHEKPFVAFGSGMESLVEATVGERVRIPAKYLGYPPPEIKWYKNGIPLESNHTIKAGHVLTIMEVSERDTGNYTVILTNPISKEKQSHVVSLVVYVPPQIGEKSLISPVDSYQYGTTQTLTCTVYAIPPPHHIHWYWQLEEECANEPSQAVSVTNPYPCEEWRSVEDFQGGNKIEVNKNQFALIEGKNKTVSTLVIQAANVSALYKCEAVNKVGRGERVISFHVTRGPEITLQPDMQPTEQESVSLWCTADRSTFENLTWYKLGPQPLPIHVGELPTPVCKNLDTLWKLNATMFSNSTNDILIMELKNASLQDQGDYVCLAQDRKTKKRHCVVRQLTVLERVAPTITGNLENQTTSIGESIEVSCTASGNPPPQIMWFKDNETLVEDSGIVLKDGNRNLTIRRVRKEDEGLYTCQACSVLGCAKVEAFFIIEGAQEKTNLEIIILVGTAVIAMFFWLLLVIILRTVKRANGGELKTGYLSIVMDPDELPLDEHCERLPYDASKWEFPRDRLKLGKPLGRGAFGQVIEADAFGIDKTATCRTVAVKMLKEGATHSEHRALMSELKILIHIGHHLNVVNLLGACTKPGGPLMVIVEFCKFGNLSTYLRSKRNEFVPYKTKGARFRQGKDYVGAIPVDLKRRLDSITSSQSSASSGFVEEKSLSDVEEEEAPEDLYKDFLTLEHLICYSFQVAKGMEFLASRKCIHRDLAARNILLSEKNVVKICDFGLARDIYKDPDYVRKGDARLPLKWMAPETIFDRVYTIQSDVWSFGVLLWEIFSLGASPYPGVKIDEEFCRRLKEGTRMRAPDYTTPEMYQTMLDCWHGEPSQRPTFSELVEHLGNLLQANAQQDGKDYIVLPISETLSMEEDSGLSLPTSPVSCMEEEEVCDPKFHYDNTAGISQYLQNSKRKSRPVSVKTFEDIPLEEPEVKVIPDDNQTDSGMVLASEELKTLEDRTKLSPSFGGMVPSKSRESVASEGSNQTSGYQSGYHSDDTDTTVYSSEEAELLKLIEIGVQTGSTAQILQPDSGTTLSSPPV
Receptor-type tyrosine-protein kinase FLT3 (Homo sapiens), sequence (P36888 whole entry): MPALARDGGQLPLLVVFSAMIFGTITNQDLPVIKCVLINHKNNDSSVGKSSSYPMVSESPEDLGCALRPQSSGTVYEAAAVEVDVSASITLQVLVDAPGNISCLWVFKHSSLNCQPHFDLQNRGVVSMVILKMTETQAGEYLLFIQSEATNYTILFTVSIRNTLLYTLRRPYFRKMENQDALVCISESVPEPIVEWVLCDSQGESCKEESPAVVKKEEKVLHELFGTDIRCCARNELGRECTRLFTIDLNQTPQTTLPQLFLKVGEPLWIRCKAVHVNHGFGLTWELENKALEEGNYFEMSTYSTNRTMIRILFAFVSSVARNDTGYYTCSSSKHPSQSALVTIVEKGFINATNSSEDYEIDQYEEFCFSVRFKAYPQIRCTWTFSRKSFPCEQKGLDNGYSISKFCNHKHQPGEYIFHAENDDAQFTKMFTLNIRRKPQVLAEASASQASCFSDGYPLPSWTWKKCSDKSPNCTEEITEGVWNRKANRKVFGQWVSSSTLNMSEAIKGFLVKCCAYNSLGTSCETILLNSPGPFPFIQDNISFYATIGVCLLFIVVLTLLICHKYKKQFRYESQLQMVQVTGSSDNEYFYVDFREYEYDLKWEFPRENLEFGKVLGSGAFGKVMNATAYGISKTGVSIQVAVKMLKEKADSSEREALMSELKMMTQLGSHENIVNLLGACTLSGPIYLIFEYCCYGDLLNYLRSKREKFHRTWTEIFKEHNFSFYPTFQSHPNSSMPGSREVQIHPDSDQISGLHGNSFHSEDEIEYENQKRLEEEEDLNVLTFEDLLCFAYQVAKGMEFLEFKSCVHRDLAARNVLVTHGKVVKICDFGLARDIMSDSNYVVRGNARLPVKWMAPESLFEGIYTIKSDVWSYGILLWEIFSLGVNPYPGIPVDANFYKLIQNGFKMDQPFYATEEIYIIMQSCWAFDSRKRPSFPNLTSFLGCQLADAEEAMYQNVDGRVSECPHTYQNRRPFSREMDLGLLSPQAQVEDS
Vascular endothelial growth factor receptor 1, sequence (P17948 whole entry): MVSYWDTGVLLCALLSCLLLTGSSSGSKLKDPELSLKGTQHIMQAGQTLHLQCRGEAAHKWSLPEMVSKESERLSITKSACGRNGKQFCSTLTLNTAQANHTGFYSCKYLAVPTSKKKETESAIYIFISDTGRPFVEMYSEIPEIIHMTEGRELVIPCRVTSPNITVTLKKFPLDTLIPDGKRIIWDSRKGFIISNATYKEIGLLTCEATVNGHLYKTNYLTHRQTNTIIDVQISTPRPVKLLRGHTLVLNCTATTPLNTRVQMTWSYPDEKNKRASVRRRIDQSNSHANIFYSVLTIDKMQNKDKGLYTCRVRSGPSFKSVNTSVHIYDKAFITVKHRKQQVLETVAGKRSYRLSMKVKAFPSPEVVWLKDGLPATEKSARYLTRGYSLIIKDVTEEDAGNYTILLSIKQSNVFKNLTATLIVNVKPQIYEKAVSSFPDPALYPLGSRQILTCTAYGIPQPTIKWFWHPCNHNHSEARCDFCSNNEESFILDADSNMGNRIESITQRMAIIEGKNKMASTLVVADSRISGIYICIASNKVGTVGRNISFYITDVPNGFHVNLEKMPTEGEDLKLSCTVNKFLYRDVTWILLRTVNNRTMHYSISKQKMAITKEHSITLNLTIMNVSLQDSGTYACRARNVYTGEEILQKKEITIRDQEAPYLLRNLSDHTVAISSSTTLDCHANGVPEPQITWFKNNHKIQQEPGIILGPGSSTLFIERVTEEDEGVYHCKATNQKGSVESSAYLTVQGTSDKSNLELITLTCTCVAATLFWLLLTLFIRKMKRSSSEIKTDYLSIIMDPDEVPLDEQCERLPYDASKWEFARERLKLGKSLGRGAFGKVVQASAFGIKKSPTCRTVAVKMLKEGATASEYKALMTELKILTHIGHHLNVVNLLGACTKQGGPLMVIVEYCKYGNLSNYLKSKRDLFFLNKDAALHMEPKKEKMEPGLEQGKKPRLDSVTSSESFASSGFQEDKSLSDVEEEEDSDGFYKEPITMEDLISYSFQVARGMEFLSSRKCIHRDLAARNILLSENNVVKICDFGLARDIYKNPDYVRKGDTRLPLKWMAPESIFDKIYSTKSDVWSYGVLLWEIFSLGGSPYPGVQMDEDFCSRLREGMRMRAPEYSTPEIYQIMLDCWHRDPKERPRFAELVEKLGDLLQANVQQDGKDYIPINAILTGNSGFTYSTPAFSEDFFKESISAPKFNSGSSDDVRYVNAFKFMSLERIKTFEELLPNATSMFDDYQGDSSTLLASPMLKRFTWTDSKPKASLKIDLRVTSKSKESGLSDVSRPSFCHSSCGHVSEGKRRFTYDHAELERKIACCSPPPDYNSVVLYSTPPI

pIC50 [1]: 7.92
SMILES: CNC(=O)c1nc(Nc2ccc(NC(=O)Nc3cccc(C)c3)cc2)c2ccccc2n1

pIC50 [2]: 7.77
SMILES: COc1cc2ncnc(Nc3ccncc3C(=O)NCc3cccs3)c2cc1OC

inhibition [3]: 91%
pIC50 [4]: 4.92
SMILES: COc1cc2ncnc(Sc3nnc(C)s3)c2cc1OC
Activity [5]: 60%

pIC50 [6]: 4.62
pIC50 [7]: 4.39
pIC50 [8]: 4.48
SMILES: O=C(Nc1ccc(Oc2nc(Cl)nc3ccccc23)cc1)c1cccnc1

From ChEMBL document CHEMBL5625175, “Quinazoline-based VEGFR-2 inhibitors as potential anti-angiogenic agents: A contemporary perspective of SAR and molecular docking studies” (Eur J Med Chem, 2023)
